Columns and labels:
[1] = test system: diarrhea caused by a chemotherapeutic agent in Balb/c mice; assay: Examples 343-381 (Table 6): oral versus intravenous CDK inhibitor, relief of diarrhea caused by a chemotherapeutic agent; assay type: in vivo
Description: Balb/c mice were fed for 1 week, and then divided into groups. The experiment was divided into a control group, a chemotherapeutic agent group, and an oral administration group of a CDK inhibitor, and an intravenous injection group of a CDK inhibitor, each of which comprised 10 mice, to perform the administration experiment, for which the administration dosage, mode, time and frequency were shown in Table 6. The control group: being injected/intragastrically administered with the same solvent as that used in the CDK inhibitor group (the time was shown in Table 6), and then being injected/intragastrically administered with the same solvent as that used in the chemotherapeutic agent group (the administration mode was shown in Table 6): the chemotherapeutic agent group: being injected/intragastrically administered with the same solvent as that used in the CDK inhibitor group (the time was shown in Table 6), and then being injected/intragastrically administered with the chemotherapeutic agent (the type, administration mode and dosage were shown in Table 6): the oral administration group of the CDK inhibitor: being intragastrically administered with the CDK inhibitor (the time was shown in Table 6), and then being administered with the chemotherapeutic agent (the mode and dosage were shown in Table 6): the intravenous injection group of the CDK inhibitor: being injected with the CDK inhibitor through tail vein (the time was shown in Table 6), and then being administered with the chemotherapeutic agent (the mode and dosage were shown in Table 6).
The diarrhea grading of mice was observed and recorded every day.

[2] = test system: Chemotherapeutic agent-caused diarrhea models of Balb/c mice; assay: Examples 1-229 (Table 3): oral CDK inhibitor, relief of diarrhea caused by a chemotherapeutic agent; assay type: in vivo
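Also: percent of treated mice whose diarrhea grade fell below chemotherapy-group average.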

CCN1CCN(Cc2ccc(Nc3ncc(F)c(-c4cc(F)c5nc(C)n(C(C)C)c5c4)n3)nc2)CC1 [Abemaciclib]
Relative remission rate ([1]; Example 364, Carboplatin (CBP) intramuscular injection 150 mg/kg single, CDK inhibitor intravenous injection 150 mg/kg single, 8 h before, cycle 10 days): 20%
Relative remission rate ([1]; Example 364, Carboplatin (CBP) intramuscular injection 150 mg/kg single, CDK inhibitor oral 150 mg/kg single, 8 h before, cycle 10 days): 50%
Relative remission rate ([1]; Example 371, Gemcitabine (GEM) intraperitoneal injection 120 mg/kg single, CDK inhibitor intravenous injection 150 mg/kg single, 0.5 h before, cycle 8 days): 10%
Relative remission rate ([1]; Example 371, Gemcitabine (GEM) intraperitoneal injection 120 mg/kg single, CDK inhibitor oral 150 mg/kg single, 0.5 h before, cycle 8 days): 30%
Relative remission rate ([1]; Example 372, Gemcitabine (GEM) intraperitoneal injection 120 mg/kg single, CDK inhibitor intravenous injection 150 mg/kg single, 4 h before, cycle 8 days): 10%
Relative remission rate ([1]; Example 372, Gemcitabine (GEM) intraperitoneal injection 120 mg/kg single, CDK inhibitor oral 150 mg/kg single, 4 h before, cycle 8 days): 30%
Relative remission rate ([1]; Example 373, Gemcitabine (GEM) intraperitoneal injection 120 mg/kg single, CDK inhibitor intravenous injection 150 mg/kg single, 8 h before, cycle 8 days): 20%
Relative remission rate ([1]; Example 373, Gemcitabine (GEM) intraperitoneal injection 120 mg/kg single, CDK inhibitor oral 150 mg/kg single, 8 h before, cycle 8 days): 50%
Relative remission rate ([1]; Example 374, Gemcitabine (GEM) intraperitoneal injection 120 mg/kg single, CDK inhibitor intravenous injection 150 mg/kg single, 12 h before, cycle 8 days): 20%
Relative remission rate ([1]; Example 374, Gemcitabine (GEM) intraperitoneal injection 120 mg/kg single, CDK inhibitor oral 150 mg/kg single, 12 h before, cycle 8 days): 50%
Relative remission rate ([1]; Example 375, Gemcitabine (GEM) intraperitoneal injection 120 mg/kg single, CDK inhibitor intravenous injection 150 mg/kg single, 24 h before, cycle 8 days): 10%
Relative remission rate ([1]; Example 375, Gemcitabine (GEM) intraperitoneal injection 120 mg/kg single, CDK inhibitor oral 150 mg/kg single, 24 h before, cycle 8 days): 40%
Relative remission rate (%) ([2]; Example 48, Fluorouracil (5-Fu) intramuscular injection 125 mg/kg single, CDK inhibitor oral 150 mg/kg single 8 h before, cycle 10 days): 40%
Relative remission rate (%) ([2]; Example 89, Irinotecan (CPT-11) intraperitoneal injection 240 mg/kg single, CDK inhibitor oral 150 mg/kg single 0.5 h before, cycle 7 days): 30%
Relative remission rate (%) ([2]; Example 90, Irinotecan (CPT-11) intraperitoneal injection 240 mg/kg single, CDK inhibitor oral 150 mg/kg single 1 h before, cycle 7 days): 30%
Relative remission rate (%) ([2]; Example 91, Irinotecan (CPT-11) intraperitoneal injection 240 mg/kg single, CDK inhibitor oral 150 mg/kg single 2 h before, cycle 7 days): 40%
Relative remission rate (%) ([2]; Example 92, Irinotecan (CPT-11) intraperitoneal injection 240 mg/kg single, CDK inhibitor oral 150 mg/kg single 3 h before, cycle 7 days): 30%
Relative remission rate (%) ([2]; Example 93, Irinotecan (CPT-11) intraperitoneal injection 240 mg/kg single, CDK inhibitor oral 150 mg/kg single 4 h before, cycle 7 days): 50%
Relative remission rate (%) ([2]; Example 94, Irinotecan (CPT-11) intraperitoneal injection 240 mg/kg single, CDK inhibitor oral 150 mg/kg single 5 h before, cycle 7 days): 60%
Relative remission rate (%) ([2]; Example 95, Irinotecan (CPT-11) intraperitoneal injection 240 mg/kg single, CDK inhibitor oral 150 mg/kg single 6 h before, cycle 7 days): 60%
Relative remission rate (%) ([2]; Example 96, Irinotecan (CPT-11) intraperitoneal injection 240 mg/kg single, CDK inhibitor oral 150 mg/kg single 7 h before, cycle 7 days): 60%
Relative remission rate (%) ([2]; Example 97, Irinotecan (CPT-11) intraperitoneal injection 240 mg/kg single, CDK inhibitor oral 150 mg/kg single 8 h before, cycle 7 days): 70%
Relative remission rate (%) ([2]; Example 98, Irinotecan (CPT-11) intraperitoneal injection 240 mg/kg single, CDK inhibitor oral 150 mg/kg single 9 h before, cycle 7 days): 50%
Relative remission rate (%) ([2]; Example 99, Irinotecan (CPT-11) intraperitoneal injection 240 mg/kg single, CDK inhibitor oral 12.5 mg/kg single 10 h before, cycle 7 days): 20%
Relative remission rate (%) ([2]; Example 100, Irinotecan (CPT-11) intraperitoneal injection 240 mg/kg single, CDK inhibitor oral 25 mg/kg single 10 h before, cycle 7 days): 40%
Relative remission rate (%) ([2]; Example 101, Irinotecan (CPT-11) intraperitoneal injection 240 mg/kg single, CDK inhibitor oral 50 mg/kg single 10 h before, cycle 7 days): 80%
Relative remission rate (%) ([2]; Example 102, Irinotecan (CPT-11) intraperitoneal injection 240 mg/kg single, CDK inhibitor oral 100 mg/kg single 10 h before, cycle 7 days): 50%
Relative remission rate (%) ([2]; Example 103, Irinotecan (CPT-11) intraperitoneal injection 240 mg/kg single, CDK inhibitor oral 150 mg/kg single 10 h before, cycle 7 days): 70%
Relative remission rate (%) ([2]; Example 104, Irinotecan (CPT-11) intraperitoneal injection 240 mg/kg single, CDK inhibitor oral 100 mg/kg single 11 h before, cycle 7 days): 80%
Relative remission rate (%) ([2]; Example 105, Irinotecan (CPT-11) intraperitoneal injection 240 mg/kg single, CDK inhibitor oral 100 mg/kg single 12 h before, cycle 7 days): 80%
Relative remission rate (%) ([2]; Example 106, Irinotecan (CPT-11) intraperitoneal injection 240 mg/kg single, CDK inhibitor oral 100 mg/kg single 14 h before, cycle 7 days): 90%
Relative remission rate (%) ([2]; Example 107, Irinotecan (CPT-11) intraperitoneal injection 240 mg/kg single, CDK inhibitor oral 100 mg/kg single 16 h before, cycle 7 days): 70%
Relative remission rate (%) ([2]; Example 108, Irinotecan (CPT-11) intraperitoneal injection 240 mg/kg single, CDK inhibitor oral 100 mg/kg single 18 h before, cycle 7 days): 70%
Relative remission rate (%) ([2]; Example 109, Irinotecan (CPT-11) intraperitoneal injection 240 mg/kg single, CDK inhibitor oral 100 mg/kg single 20 h before, cycle 7 days): 40%
Relative remission rate (%) ([2]; Example 110, Irinotecan (CPT-11) intraperitoneal injection 240 mg/kg single, CDK inhibitor oral 100 mg/kg single 22 h before, cycle 7 days): 40%
Relative remission rate (%) ([2]; Example 111, Irinotecan (CPT-11) intraperitoneal injection 240 mg/kg single, CDK inhibitor oral 100 mg/kg single 24 h before, cycle 7 days): 40%
Relative remission rate (%) ([2]; Example 112, Irinotecan (CPT-11) intraperitoneal injection 240 mg/kg single, CDK inhibitor oral 100 mg/kg single 48 h before, cycle 7 days): 0%
Relative remission rate (%) ([2]; Example 226, Topotecan intraperitoneal injection 10 mg/kg single, CDK inhibitor oral 150 mg/kg single, 6 h before, 14 days): 40%
